Test results as given in PMC11124822, “Discovery and Anticancer Screening of Novel Oxindole-Based Derivative Bearing Pyridyl Group as Potent and Selective Dual FLT3/CDK2 Kinase Inhibitor” (Pharmaceuticals, 2024).

tested on: MOLT-4; assay: NCI-60 antiproliferative screen (SRB); type: cell-based; settings: Homo sapiens; 10 µM single dose, 48 h; MOLT-4 (Leukemia); read-out: Growth inhibition (%)

Compound	inhibition at 10 µM
O=C1Nc2cc(Cl)ccc2C1=Cc1ccc(OCc2ccccc2)cc1 (mixture of isomers) [Compound 5d, (E/Z)-3-[4-(Benzyloxy)benzylidene]-6-chloroindolin-2-one]	0.86%

tested on: RPMI-8226; assay: NCI-60 antiproliferative screen (SRB); type: cell-based, human; settings: Homo sapiens; 10 µM single dose, 48 h; RPMI-8226 (Leukemia); read-out: Growth inhibition (%)

Compound	inhibition at 10 µM
O=C1Nc2cc(Cl)ccc2C1=Cc1ccc(OCc2ccccc2)cc1 (mixture of isomers) [Compound 5d, (E/Z)-3-[4-(Benzyloxy)benzylidene]-6-chloroindolin-2-one]	-7.36%

tested on: HOP-62; assay: NCI-60 antiproliferative screen (SRB); type: cell-based, human; settings: Homo sapiens; 10 µM single dose, 48 h; HOP-62 (NSCLC); read-out: Growth inhibition (%)

Compound	inhibition at 10 µM
O=C1Nc2cc(Cl)ccc2C1=Cc1ccc(OCc2ccccc2)cc1 (mixture of isomers) [Compound 5d, (E/Z)-3-[4-(Benzyloxy)benzylidene]-6-chloroindolin-2-one]	3.85%

tested on: HCC-2998; assay: NCI-60 antiproliferative screen (SRB); type: cell-based, human; settings: Homo sapiens; 10 µM single dose, 48 h; HCC-2998 (Colon); read-out: Growth inhibition (%)

Compound	inhibition at 10 µM
O=C1Nc2cc(Cl)ccc2C1=Cc1ccc(OCc2ccccc2)cc1 (mixture of isomers) [Compound 5d, (E/Z)-3-[4-(Benzyloxy)benzylidene]-6-chloroindolin-2-one]	-1.79%

tested on: HCT-116; assay: NCI-60 antiproliferative screen (SRB); type: cell-based, human; settings: Homo sapiens; 10 µM single dose, 48 h; HCT-116 (Colon); read-out: Growth inhibition (%)

Compound	inhibition at 10 µM
O=C1Nc2cc(Cl)ccc2C1=Cc1ccc(OCc2ccccc2)cc1 (mixture of isomers) [Compound 5d, (E/Z)-3-[4-(Benzyloxy)benzylidene]-6-chloroindolin-2-one]	2.33%

tested on: KM12; assay: NCI-60 antiproliferative screen (SRB); type: cell-based, human; settings: Homo sapiens; 10 µM single dose, 48 h; KM12 (Colon); read-out: Growth inhibition (%)

Compound	inhibition at 10 µM
O=C1Nc2cc(Cl)ccc2C1=Cc1ccc(OCc2ccccc2)cc1 (mixture of isomers) [Compound 5d, (E/Z)-3-[4-(Benzyloxy)benzylidene]-6-chloroindolin-2-one]	4.92%

tested on: SW-620; assay: NCI-60 antiproliferative screen (SRB); type: cell-based, human; settings: Homo sapiens; 10 µM single dose, 48 h; SW-620 (Colon); read-out: Growth inhibition (%)

Compound	inhibition at 10 µM
O=C1Nc2cc(Cl)ccc2C1=Cc1ccc(OCc2ccccc2)cc1 (mixture of isomers) [Compound 5d, (E/Z)-3-[4-(Benzyloxy)benzylidene]-6-chloroindolin-2-one]	0.6%

tested on: SF-295; assay: NCI-60 antiproliferative screen (SRB); type: cell-based, human; settings: Homo sapiens; 10 µM single dose, 48 h; SF-295 (CNS); read-out: Growth inhibition (%)

Compound	inhibition at 10 µM
O=C1Nc2cc(Cl)ccc2C1=Cc1ccc(OCc2ccccc2)cc1 (mixture of isomers) [Compound 5d, (E/Z)-3-[4-(Benzyloxy)benzylidene]-6-chloroindolin-2-one]	-14.7%

tested on: SF-539; assay: NCI-60 antiproliferative screen (SRB); type: cell-based, human; settings: Homo sapiens; 10 µM single dose, 48 h; SF-539 (CNS); read-out: Growth inhibition (%)

Compound	inhibition at 10 µM
O=C1Nc2cc(Cl)ccc2C1=Cc1ccc(OCc2ccccc2)cc1 (mixture of isomers) [Compound 5d, (E/Z)-3-[4-(Benzyloxy)benzylidene]-6-chloroindolin-2-one]	5.48%

tested on: U251; assay: NCI-60 antiproliferative screen (SRB); type: cell-based, human; settings: Homo sapiens, U-251; 10 µM single dose, 48 h; U251 (CNS); read-out: Growth inhibition (%)

Compound	inhibition at 10 µM
O=C1Nc2cc(Cl)ccc2C1=Cc1ccc(OCc2ccccc2)cc1 (mixture of isomers) [Compound 5d, (E/Z)-3-[4-(Benzyloxy)benzylidene]-6-chloroindolin-2-one]	-4.25%

tested on: MALME-3M; assay: NCI-60 antiproliferative screen (SRB); type: cell-based, human; settings: Homo sapiens; 10 µM single dose, 48 h; MALME-3M (Melanoma); read-out: Growth inhibition (%)

Compound	inhibition at 10 µM
O=C1Nc2cc(Cl)ccc2C1=Cc1ccc(OCc2ccccc2)cc1 (mixture of isomers) [Compound 5d, (E/Z)-3-[4-(Benzyloxy)benzylidene]-6-chloroindolin-2-one]	-15.4%

tested on: M14; assay: NCI-60 antiproliferative screen (SRB); type: cell-based, human; settings: Homo sapiens; 10 µM single dose, 48 h; M14 (Melanoma); read-out: Growth inhibition (%)

Compound	inhibition at 10 µM
O=C1Nc2cc(Cl)ccc2C1=Cc1ccc(OCc2ccccc2)cc1 (mixture of isomers) [Compound 5d, (E/Z)-3-[4-(Benzyloxy)benzylidene]-6-chloroindolin-2-one]	3.83%

tested on: SK-MEL-2; assay: NCI-60 antiproliferative screen (SRB); type: cell-based, human; settings: Homo sapiens; 10 µM single dose, 48 h; SK-MEL-2 (Melanoma); read-out: Growth inhibition (%)

Compound	inhibition at 10 µM
O=C1Nc2cc(Cl)ccc2C1=Cc1ccc(OCc2ccccc2)cc1 (mixture of isomers) [Compound 5d, (E/Z)-3-[4-(Benzyloxy)benzylidene]-6-chloroindolin-2-one]	-11.3%

tested on: SK-MEL-28; assay: NCI-60 antiproliferative screen (SRB); type: cell-based, human; settings: Homo sapiens; 10 µM single dose, 48 h; SK-MEL-28 (Melanoma); read-out: Growth inhibition (%)

Compound	inhibition at 10 µM
O=C1Nc2cc(Cl)ccc2C1=Cc1ccc(OCc2ccccc2)cc1 (mixture of isomers) [Compound 5d, (E/Z)-3-[4-(Benzyloxy)benzylidene]-6-chloroindolin-2-one]	-2.97%

tested on: UACC-257; assay: NCI-60 antiproliferative screen (SRB); type: cell-based, human; settings: Homo sapiens; 10 µM single dose, 48 h; UACC-257 (Melanoma); read-out: Growth inhibition (%)

Compound	inhibition at 10 µM
O=C1Nc2cc(Cl)ccc2C1=Cc1ccc(OCc2ccccc2)cc1 (mixture of isomers) [Compound 5d, (E/Z)-3-[4-(Benzyloxy)benzylidene]-6-chloroindolin-2-one]	-16.1%

tested on: OVCAR-5; assay: NCI-60 antiproliferative screen (SRB); type: cell-based, human; settings: Homo sapiens; 10 µM single dose, 48 h; OVCAR-5 (Ovarian); read-out: Growth inhibition (%)

Compound	inhibition at 10 µM
O=C1Nc2cc(Cl)ccc2C1=Cc1ccc(OCc2ccccc2)cc1 (mixture of isomers) [Compound 5d, (E/Z)-3-[4-(Benzyloxy)benzylidene]-6-chloroindolin-2-one]	-0.55%

tested on: OVCAR-8; assay: NCI-60 antiproliferative screen (SRB); type: cell-based, human; settings: Homo sapiens; 10 µM single dose, 48 h; OVCAR-8 (Ovarian); read-out: Growth inhibition (%)

Compound	inhibition at 10 µM
O=C1Nc2cc(Cl)ccc2C1=Cc1ccc(OCc2ccccc2)cc1 (mixture of isomers) [Compound 5d, (E/Z)-3-[4-(Benzyloxy)benzylidene]-6-chloroindolin-2-one]	-0.41%

tested on: NCI/ADR-RES; assay: NCI-60 antiproliferative screen (SRB); type: cell-based, human; settings: Homo sapiens; 10 µM single dose, 48 h; NCI/ADR-RES (Ovarian); read-out: Growth inhibition (%)

Compound	inhibition at 10 µM
O=C1Nc2cc(Cl)ccc2C1=Cc1ccc(OCc2ccccc2)cc1 (mixture of isomers) [Compound 5d, (E/Z)-3-[4-(Benzyloxy)benzylidene]-6-chloroindolin-2-one]	-4.24%

tested on: A498; assay: NCI-60 antiproliferative screen (SRB); type: cell-based, human; settings: Homo sapiens; 10 µM single dose, 48 h; A498 (Renal); read-out: Growth inhibition (%)

Compound	inhibition at 10 µM
O=C1Nc2cc(Cl)ccc2C1=Cc1ccc(OCc2ccccc2)cc1 (mixture of isomers) [Compound 5d, (E/Z)-3-[4-(Benzyloxy)benzylidene]-6-chloroindolin-2-one]	6.98%

tested on: CAKI-1; assay: NCI-60 antiproliferative screen (SRB); type: cell-based, human; settings: Homo sapiens; 10 µM single dose, 48 h; CAKI-1 (Renal); read-out: Growth inhibition (%)

Compound	inhibition at 10 µM
O=C1Nc2cc(Cl)ccc2C1=Cc1ccc(OCc2ccccc2)cc1 (mixture of isomers) [Compound 5d, (E/Z)-3-[4-(Benzyloxy)benzylidene]-6-chloroindolin-2-one]	10.7%

tested on: RXF 393; assay: NCI-60 antiproliferative screen (SRB); type: cell-based, human; settings: Homo sapiens; 10 µM single dose, 48 h; RXF 393 (Renal); read-out: Growth inhibition (%)

Compound	inhibition at 10 µM
O=C1Nc2cc(Cl)ccc2C1=Cc1ccc(OCc2ccccc2)cc1 (mixture of isomers) [Compound 5d, (E/Z)-3-[4-(Benzyloxy)benzylidene]-6-chloroindolin-2-one]	-14.2%

tested on: UO-31; assay: NCI-60 antiproliferative screen (SRB); type: cell-based, human; settings: Homo sapiens; 10 µM single dose, 48 h; UO-31 (Renal); read-out: Growth inhibition (%)

Compound	inhibition at 10 µM
O=C1Nc2cc(Cl)ccc2C1=Cc1ccc(OCc2ccccc2)cc1 (mixture of isomers) [Compound 5d, (E/Z)-3-[4-(Benzyloxy)benzylidene]-6-chloroindolin-2-one]	23.8%

tested on: PC-3; assay: NCI-60 antiproliferative screen (SRB); type: cell-based, human; settings: Homo sapiens; 10 µM single dose, 48 h; PC-3 (Prostate); read-out: Growth inhibition (%)

Compound	inhibition at 10 µM
O=C1Nc2cc(Cl)ccc2C1=Cc1ccc(OCc2ccccc2)cc1 (mixture of isomers) [Compound 5d, (E/Z)-3-[4-(Benzyloxy)benzylidene]-6-chloroindolin-2-one]	11.8%

tested on: DU-145; assay: NCI-60 antiproliferative screen (SRB); type: cell-based, human; settings: Homo sapiens; 10 µM single dose, 48 h; DU-145 (Prostate); read-out: Growth inhibition (%)

Compound	inhibition at 10 µM
O=C1Nc2cc(Cl)ccc2C1=Cc1ccc(OCc2ccccc2)cc1 (mixture of isomers) [Compound 5d, (E/Z)-3-[4-(Benzyloxy)benzylidene]-6-chloroindolin-2-one]	-1.25%

tested on: MCF7; assay: NCI-60 antiproliferative screen (SRB); type: cell-based, human; settings: Homo sapiens; 10 µM single dose, 48 h; MCF7 (Breast); read-out: Growth inhibition (%)

Compound	inhibition at 10 µM
O=C1Nc2cc(Cl)ccc2C1=Cc1ccc(OCc2ccccc2)cc1 (mixture of isomers) [Compound 5d, (E/Z)-3-[4-(Benzyloxy)benzylidene]-6-chloroindolin-2-one]	38.4%

tested on: MDA-MB-231; assay: NCI-60 antiproliferative screen (SRB); type: cell-based, human; settings: Homo sapiens; 10 µM single dose, 48 h; MDA-MB-231 (Breast); read-out: Growth inhibition (%)

Compound	inhibition at 10 µM
O=C1Nc2cc(Cl)ccc2C1=Cc1ccc(OCc2ccccc2)cc1 (mixture of isomers) [Compound 5d, (E/Z)-3-[4-(Benzyloxy)benzylidene]-6-chloroindolin-2-one]	-3.65%

tested on: MDA-MB-468; assay: NCI-60 antiproliferative screen (SRB); type: cell-based, human; settings: Homo sapiens; 10 µM single dose, 48 h; MDA-MB-468 (Breast); read-out: Growth inhibition (%)

Compound	inhibition at 10 µM
O=C1Nc2cc(Cl)ccc2C1=Cc1ccc(OCc2ccccc2)cc1 (mixture of isomers) [Compound 5d, (E/Z)-3-[4-(Benzyloxy)benzylidene]-6-chloroindolin-2-one]	1.52%

tested on: SR; assay: NCI-60 antiproliferative screen (SRB); settings: Homo sapiens, 48 h, read-out: Growth inhibition (%)

Compound	inhibition at 10 µM
O=C1Nc2cc(Cl)ccc2C1=Cc1ccc(OCc2ccccc2)cc1 (mixture of isomers) [Compound 5d, (E/Z)-3-[4-(Benzyloxy)benzylidene]-6-chloroindolin-2-one]	-4.93%

tested on: OVCAR-4; assay: NCI-60 antiproliferative screen (SRB); settings: Homo sapiens, OVCAR-4, 48 h, read-out: Growth inhibition (%)
Description: Anticancer activity was tested against 60 cancer cell lines (NCI-60) after 48h treatments with a single dosage of 10 μM of compounds by using sulforhodamine B assay [39] on the traditional 96-well platform. […] The human cancer cell lines of the NCI-60 panel are grown in RPMI 1640 medium supplemented with 5% FBS (fetal bovine serum) and 2 mM L-glutamine. […] For further analysis of promising compounds, five dose screens were performed against the NCI-60 panel. Drug treatments are performed in 5 doses using 10-fold or ½ log dose dilutions.

Compound	inhibition at 10 µM
O=C1Nc2cc(Cl)ccc2C1=Cc1ccc(OCc2ccccc2)cc1 (mixture of isomers) [Compound 5d, (E/Z)-3-[4-(Benzyloxy)benzylidene]-6-chloroindolin-2-one]	3.65%
